Data: patent US12667572B2, “Tricyclic compounds useful in the treatment of cancer, autoimmune and inflammatory disorders” (SCHRÖDINGER, INC., priority 2021, dated 2026)

Key:
[1] = target: T1, full-length MALT1 protein His-MALT1(1-824) (Homo sapiens, UniProt Q9UDY8); test: MALT1 protease assay, Assay 1 (2 nM MALT1, Ac-LRSR-AMC substrate); type: biochemical; conditions: 2 nM MALT1, 50 μM Ac-LRSR-AMC, 2 h pre-incubation, 8 hr incubation at RT
T1 construct: full-length MALT1 protein His-MALT1(1-824); His (N); made in house; host or cells: baculovirus-infected insect cells
T1 sequence (Q9UDY8 1-824): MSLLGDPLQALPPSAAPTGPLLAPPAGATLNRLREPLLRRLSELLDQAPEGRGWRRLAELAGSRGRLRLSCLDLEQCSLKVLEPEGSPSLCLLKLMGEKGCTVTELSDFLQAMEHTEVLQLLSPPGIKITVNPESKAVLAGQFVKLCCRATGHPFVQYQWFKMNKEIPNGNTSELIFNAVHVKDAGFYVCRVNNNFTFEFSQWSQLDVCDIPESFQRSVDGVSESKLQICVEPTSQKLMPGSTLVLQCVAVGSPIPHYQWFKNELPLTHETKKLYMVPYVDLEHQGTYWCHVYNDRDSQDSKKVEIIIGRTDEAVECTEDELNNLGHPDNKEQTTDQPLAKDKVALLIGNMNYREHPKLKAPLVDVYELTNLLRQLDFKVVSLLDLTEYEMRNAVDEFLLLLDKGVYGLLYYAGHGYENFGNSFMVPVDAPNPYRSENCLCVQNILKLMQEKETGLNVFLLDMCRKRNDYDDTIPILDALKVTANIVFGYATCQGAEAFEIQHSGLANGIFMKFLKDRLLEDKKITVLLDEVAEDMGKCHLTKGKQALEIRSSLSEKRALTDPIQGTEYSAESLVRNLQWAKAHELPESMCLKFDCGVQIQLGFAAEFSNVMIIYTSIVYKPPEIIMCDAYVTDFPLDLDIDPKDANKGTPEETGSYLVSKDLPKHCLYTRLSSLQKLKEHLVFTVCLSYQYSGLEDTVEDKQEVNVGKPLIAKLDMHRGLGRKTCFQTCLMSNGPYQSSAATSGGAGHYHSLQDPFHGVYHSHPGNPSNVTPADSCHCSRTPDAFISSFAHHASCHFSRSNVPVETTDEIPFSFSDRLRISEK
In short: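 Compounds (0.1% DMSO final) sat 2 h at RT with insect-cell-expressed His-MALT1(1-824), in 50 mM Tris pH 7.5, 600 mM sodium citrate, 1 mM DTT, 1 mM EDTA, 0.05% BSA. Cleavage of 50 μM Ac-LRSR-AMC (Km ~100 μM) ran 8 h at RT, read as AMC fluorescence. IC50 and Hill coefficient fitted to % remaining activity.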

[2] = tested on: IL10 secretion in OCI-LY10 cells; test: Human IL10 secretion assay, Assay 1 (HTRF); type: cell-based; conditions: 24 h incubation, read-out: IL-10 Secretion IC50 [nM] Assay 1
Method: IL10 is one of the cytokines that are regulated via activation of NF-kB signaling. For example, in ABC-DLBCL cell lines, the activated NF-kB signaling leads to increased IL10 secretion. Inhibition of NF-kB signaling has been shown leading to decreased IL10 secretion.
Assay 1: OCI-LY10 cells were seeded in IMEM supplemented with 20% fetal bovine serum at 3×10^5 cells per well in 96-well round bottom plates (Corning 3799, Corning), treated with 100 nL of 3-fold serial compound dilutions, starting at 10 mM. The final vehicle concentration was 0.1% DMSO in all wells. After 24 h incubation, the cells were transferred to 96-PCR plates (Axygen: PCR-96-FLT-C) and centrifuged, then 16 μL of cell culture media was transferred to HTRF plates and IL10 levels were measured using human IL-10 Assay Kits (Cisbio) using HTRF format. The signals were transformed to percentage of remaining activity by using the high control (HC, median of signal from wells containing cells treated with DMSO) and low control (LC, median of signal from wells with no cells). IC50 values (nM) were determined using 4-parametric curve-fitting and Hill coefficient obtained using Graph Pad Prism (Graph Pad software, Inc, USA) with non-linear regression analysis.

SMILES | IC50 [1] [nM] | IC50 [2] [nM]
CC1(C)CC(C(=O)Nc2cnc(-n3nccn3)c(Cl)c2)c2cnc3cc(F)nn3c21 (single isomer, unassigned) [Example 33, N-(5-chloro-6-(2H-1,2,3-triazol-2-yl)pyridin-3-yl)-2-fluoro-8,8-dimethyl-7,8-dihydro-6H-cyclopenta[e]pyrazolo[1,5-a]pyrimidine-6-carboxamide] | < 10 | 10 to 100
C[C@@]1(C(F)(F)F)C[C@H](C(=O)Nc2cnc(-n3nccn3)c(Cl)c2)c2cnc3cc(Cl)nn3c21 (single isomer, unassigned) [Example 36, 2-chloro-N-(5-chloro-6-(2H-1,2,3-triazol-2-yl)pyridin-3-yl)-8-methyl-8-(trifluoromethyl)-7,8-dihydro-6H-cyclopenta[e]pyrazolo[1,5-a]pyrimidine-6-carboxamide] | < 10 | 100 to 1000
C[C@]1(C(F)(F)F)C[C@@H](C(=O)Nc2cnc(-n3nccn3)c(Cl)c2)c2cnc3cc(Cl)nn3c21 (single isomer, unassigned) [Example 37, 2-chloro-N-(5-chloro-6-(2H-1,2,3-triazol-2-yl)pyridin-3-yl)-8-methyl-8-(trifluoromethyl)-7,8-dihydro-6H-cyclopenta[e]pyrazolo[1,5-a]pyrimidine-6-carboxamide] | 10 to 100 | ≥ 1000
C[C@]1(C(F)(F)F)C[C@H](C(=O)Nc2cnc(-n3nccn3)c(Cl)c2)c2cnc3cc(Cl)nn3c21 (single isomer, unassigned) [Example 38, 2-chloro-N-(5-chloro-6-(2H-1,2,3-triazol-2-yl)pyridin-3-yl)-8-methyl-8-(trifluoromethyl)-7,8-dihydro-6H-cyclopenta[e]pyrazolo[1,5-a]pyrimidine-6-carboxamide] | < 10 | 100 to 1000

More lines, now with the values ahead:

IC50 [1] [nM] | IC50 [2] [nM] | SMILES
10 to 100 | 100 to 1000 | CC1(C)CC(C(=O)Nc2cnc(-n3nccn3)c(Cl)c2)c2cnc3cc(C(F)F)nn3c21 (single isomer, unassigned) [Example 25, N-(5-chloro-6-(2H-1,2,3-triazol-2-yl)pyridin-3-yl)-2-(difluoromethyl)-8,8-dimethyl-7,8-dihydro-6H-cyclopenta[e]pyrazolo[1,5-a]pyrimidine-6-carboxamide]
10 to 100 | 100 to 1000 | CC1(C)C[C@H](C(=O)Nc2cnc([C@H]3CCCO3)c(Cl)c2)c2cnc3cc(Cl)nn3c21 (single isomer, unassigned) [Example 29, 2-chloro-N-(5-chloro-6-(tetrahydrofuran-2-yl)pyridin-3-yl)-8,8-dimethyl-7,8-dihydro-6H-cyclopenta[e]pyrazolo[1,5-a]pyrimidine-6-carboxamide]
< 10 | 100 to 1000 | CC1(C)CC(C(=O)Nc2cnc(-n3ncc(CO)n3)c(Cl)c2)c2cnc3cc(Cl)nn3c21 (single isomer, unassigned) [Example 31, 2-chloro-N-(5-chloro-6-(4-(hydroxymethyl)-2H-1,2,3-triazol-2-yl)pyridin-3-yl)-8,8-dimethyl-7,8-dihydro-6H-cyclopenta[e]pyrazolo[1,5-a]pyrimidine-6-carboxamide]
10 to 100 | ≥ 1000 | Cn1cnc(-c2ncc(NC(=O)C3CC(C)(C)c4c3cnc3cc(Cl)nn43)cc2Cl)c1 (single isomer, unassigned) [Example 35, 2-chloro-N-(5-chloro-6-(1-methyl-1H-imidazol-4-yl)pyridin-3-yl)-8,8-dimethyl-7,8-dihydro-6H-cyclopenta[e]pyrazolo[1,5-a]pyrimidine-6-carboxamide]
